Like-named read-outs stand apart in the source and are kept apart here.
Assays:
[1] = target: T1, geranylgeranyl diphosphate synthase (GGDPS) (Homo sapiens, UniProt O95749); assay: Enzyme assay utilizing recombinant GGDPS; format: biochemical
T1 sequence (O95749 1-300): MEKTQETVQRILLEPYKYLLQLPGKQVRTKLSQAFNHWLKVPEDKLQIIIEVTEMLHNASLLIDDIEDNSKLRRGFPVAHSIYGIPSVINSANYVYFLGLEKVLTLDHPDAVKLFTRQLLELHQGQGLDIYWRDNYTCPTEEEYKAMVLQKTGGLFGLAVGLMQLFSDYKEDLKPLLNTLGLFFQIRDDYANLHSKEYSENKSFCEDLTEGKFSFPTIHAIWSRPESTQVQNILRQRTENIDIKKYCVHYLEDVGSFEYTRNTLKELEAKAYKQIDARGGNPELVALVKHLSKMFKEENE

[2] = target: T1, geranylgeranyl diphosphate synthase (GGDPS); settings: read-out: GGDPS IC50; historical control; cited from earlier work
RPMI-8226 cells = settings: historical control; cited from earlier work
myeloma cells = settings: cited from earlier work
[3] = system: farnesyl diphosphate synthase (FDPS); settings: in words; cited from earlier work
[4] = observed only at high concentrations; cited from earlier work

## CC(C)=CCC/C(C)=C/Cn1cc(CC(N)(P(=O)(O)O)P(=O)(O)O)nn1 [Compound 18]
[1]
  GGDPS inhibitory activity in enzyme assay: no activity

## CC(C)=CCC/C(C)=C\CCn1cc(CC(C)(P(=O)([O-])[O-])P(=O)([O-])[O-])nn1.[Na+].[Na+].[Na+].[Na+] [Compound 6]
[2]
  IC50: 125 ± 27 nM
RPMI-8226 cells
  Cellular LEC (lowest effective concentration): 0.02 µM
Myeloma cells
  Cellular activity, lowest concentration: 20 nM

## CC(C)=CCC/C(C)=C/CCn1cc(CC(C)(P(=O)([O-])[O-])P(=O)([O-])[O-])nn1.[Na+].[Na+].[Na+].[Na+] [Compound 7]
[2]
  IC50: 86 ± 22 nM
Myeloma cells
  Cellular activity, lowest concentration: 25 nM

## CC(C)=CCC/C(C)=C/CCn1cc(CC(P(=O)([O-])[O-])P(=O)([O-])[O-])nn1.[Na+].[Na+].[Na+].[Na+] [Compound 5]
Myeloma cells; myeloma cells, mixture of olefin isomers
  Cellular activity, lowest concentration: 30 nM
[3]
  Specificity for GGDPS over FDPS: high specificity

## CC(C)=CCC/C(C)=C/CC(C/C=C(\C)CCC=C(C)C)(P(=O)(O)O)P(=O)(O)O [Compound 3, digeranyl bisphosphonate]
[4]
  Concentration at which cellular activity was observed: ~ 10 μM
